We go through 14 compounds from US12421254B2, “KRAS modulators and uses thereof” (Quanta Therapeutics, Inc., priority 2023, dated 2025).

The target of assay [1] is GST-tagged KRAS-G12V (2-169) (Homo sapiens, UniProt P01116, G12V). Description: Nucleotide exchange assay (NEA), SOS-mediated, HTRF, KRAS G12V. Type of assay: biochemical. The following applies: Table 4; IC50 extracted at 90 min; 80 nM SOS. The method in brief: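 GST-KRAS-G12V (2-169), 0.25 nM, pre-incubated 1 h at RT with compound, then SOS1cat (564-1049) 80 nM and GTP-DY-647P1 150 nM added in HEPES pH 7.3 buffer with MgCl2 and DTT. HTRF via anti-GST Tb cryptate read over 90 min; IC50 from 4-parameter fit at 90 min, blanked to no-SOS reactions.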
(In TR-FRET formats the signal depends on donor and acceptor labels being close together.)

Assay [2] has as its target GST-tagged KRAS-G12D (2-169) (Homo sapiens, UniProt P01116, G12D). Description: Nucleotide exchange assay (NEA), SOS-mediated, HTRF, KRAS G12D. The following applies: Table 4; IC50 extracted at 30 min; 20 nM SOScat; read-out: NEA G12D IC50. Type of assay: biochemical. The method in brief: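 Compound preincubated 1 h at RT with 0.25 nM GST-KRAS-G12D (2-169) and anti-GST Tb donor, then 20 nM SOS1cat (564-1049) and 150 nM GTP-DY-647P1 added; pH 7.3 HEPES buffer with MgCl2 and DTT. HTRF monitored at RT; % inhibition versus DMSO and no-SOS blank, 4-parameter IC50 taken at 30 min.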

For assay [3], the system named is phospho-ERK in GP2D (KRAS-G12D) cells. Description: pERK In Cell Western (ICW) assay (Method B), GP2D. Format: cell-based. In short, it runs like this: (§1)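 3 h cpd, 37 °C, ½-log 9-pt dilution; AGS 5,000 cells/well, GP2D/SW620 10,000 cells/well, plated overnight. PFA fix, Triton perm, anti-pERK o/n 4 °C, IRDye 800 secondary + DRAQ5. pERK/DRAQ5 as % blank; IC50 4-PL.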

Assay [4] has as its system phospho-ERK in SW620 (KRAS-G12V) cells. The experiment in a line: pERK In Cell Western (ICW) assay (Method B), SW620. Format: cell-based. The method in brief: as §1
The mark [5] stands for this setting: Homo sapiens, SW-620, 3 h, Table 4.

The structures appear in SMILES notation. A value given as a limit tells only on which side of the number the result lay.

GST-tagged KRAS-G12V (2-169), sequence (P01116 2-169 isoform P01116-2 G12V): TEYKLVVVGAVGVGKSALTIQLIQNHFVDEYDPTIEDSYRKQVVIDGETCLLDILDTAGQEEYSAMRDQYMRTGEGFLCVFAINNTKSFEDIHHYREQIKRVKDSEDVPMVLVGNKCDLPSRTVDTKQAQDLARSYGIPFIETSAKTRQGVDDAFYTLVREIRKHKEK
GST-tagged KRAS-G12D (2-169), sequence (P01116 2-169 isoform P01116-2 G12D): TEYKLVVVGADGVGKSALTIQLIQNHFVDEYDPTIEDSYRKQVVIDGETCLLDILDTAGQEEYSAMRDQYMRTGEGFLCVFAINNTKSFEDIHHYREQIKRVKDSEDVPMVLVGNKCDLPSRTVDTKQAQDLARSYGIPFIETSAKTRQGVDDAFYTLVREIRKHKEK

On to `CC(c1cccnc1N)N(CCC#N)c1nc(OC[C@@]23CCCN2C[C@H](F)C3)nc(N2CC3(CCc4sc(N)c(C#N)c43)C2)n1` (stereo partly drawn) [Compound 118, 2-amino-1′-[4-[1-(2-amino-3-pyridyl)ethyl-(2-cyanoethyl)amino]-6-[[(2R,8S)-2-fluoro-1,2,3,5,6,7-hexahydropyrrolizin-8-yl]methoxy]-1,3,5-triazin-2-yl]spiro[5,6-dihydrocyclopenta[b]thiophene-4,3′-azetidine]-3-carbonitrile], for which the half-maximal inhibitory concentration (IC50) (as a rule, the point on the concentration scale where inhibition reaches its midpoint) in assay [1] was less than 10 nM; in assay [2], less than 10 nM; in assay [3] (GP2d, 3 h, Table 4), less than 10 nM; in assay [4] (setting [5]), less than 10 nM.
Regarding `CCN(c1nc(OC[C@]2(CO)CCCN2C)nc(N2CC3(C2)SCc2sc(N)c(C#N)c23)n1)[C@H](C)c1cccnc1N` [Compound 213, 2-amino-1′-[4-[[(1R)-1-(2-amino-3-pyridyl)ethyl]-ethyl-amino]-6-[[2-(hydroxymethyl)-1-methyl-pyrrolidin-2-yl]methoxy]-1,3,5-triazin-2-yl]spiro[6H-thieno[3,4-b]thiophene-4,3′-azetidine]-3-carbonitrile], the half-inhibitory concentration (IC50) in assay [1] is less than 10 nM; in assay [2] it was less than 10 nM; in assay [3] (GP2d, 3 h, Table 4) it was 10 to 100 nM; in assay [4] (setting [5]), 10 to 100 nM.
`C[C@H](c1cccnc1N)N(CC(F)F)c1nc(OC[C@@]23CCCN2C[C@H](F)C3)nc(N2CC3(C2)SCc2sc(N)c(C#N)c23)n1` [Compound 183, 2-amino-1′-[4-[[(1R)-1-(2-amino-3-pyridyl)ethyl]-(2,2-difluoroethyl)amino]-6-[[(2R,8S)-2-fluoro-1,2,3,5,6,7-hexahydropyrrolizin-8-yl]methoxy]-1,3,5-triazin-2-yl]spiro[6H-thieno[3,4-b]thiophene-4,3′-azetidine]-3-carbonitrile]: the 50% inhibitory concentration (IC50) in assay [1] is less than 10 nM; in assay [2] it was less than 10 nM; in assay [3] (GP2d, 3 h, Table 4), less than 10 nM; in assay [4] (setting [5]) it was less than 10 nM.
With `CC(O)CN(Cc1cccnc1N)c1nc(OC[C@@]23CCCN2C[C@H](F)C3)nc(N2CC3(CCc4sc(N)c(C#N)c43)C2)n1` (stereo partly drawn) [Compound 141, 2-amino-1′-[4-[(2-amino-3-pyridyl)methyl-(2-hydroxypropyl)amino]-6-[[(2R,8S)-2-fluoro-1,2,3,5,6,7-hexahydropyrrolizin-8-yl]methoxy]-1,3,5-triazin-2-yl]spiro[5,6-dihydrocyclopenta[b]thiophene-4,3′-azetidine]-3-carbonitrile], the IC50 was less than 10 nM in assay [1]; 10 to 100 nM in assay [2]; 1000 to 20000 nM in assay [3] (GP2d, 3 h, Table 4); 100 to 1000 nM in assay [4] (setting [5]).
Regarding `N#Cc1c(N)sc2c1C1(CC2)CN(c2nc(OC[C@@]34CCCN3C[C@H](F)C4)nc(N3CCOCC(C#N)C3)n2)C1` (single isomer, unassigned) [Compound 91B, (6*)-4-[4-(2-amino-3-cyano-spiro[5,6-dihydrocyclopenta[b]thiophene-4,3′-azetidine]-1′-yl)-6-[[(2R,8S)-2-fluoro-1,2,3,5,6,7-hexahydropyrrolizin-8-yl]methoxy]-1,3,5-triazin-2-yl]-1,4-oxazepane-6-carbonitrile], the IC50 in assay [1] was less than 10 nM; in assay [2], less than 10 nM; in assay [3] (Table 4, 3 hours) it was 100 to 1000 nM; in assay [4] (Table 4, 3 hours) it was 10 to 100 nM.
With `CCN(c1nc(OCC(C)N(C)C)nc(N2CC3(C2)SCc2sc(N)c(C#N)c23)n1)[C@H](C)c1cccnc1N` (stereo partly drawn) [Compound 177, 2-amino-1′-[4-[[(1R)-1-(2-amino-3-pyridyl)ethyl]-ethyl-amino]-6-[2-(dimethylamino)propoxy]-1,3,5-triazin-2-yl]spiro[6H-thieno[3,4-b]thiophene-4,3′-azetidine]-3-carbonitrile], the half-inhibitory concentration (IC50) was less than 10 nM in assay [1]; 10 to 100 nM in assay [2]; 100 to 1000 nM in assay [3] (GP2d, 3 h, Table 4); 100 to 1000 nM in assay [4] (setting [5]).
For the compound `CC(c1cccnc1N)N(CCO)c1nc(OC[C@@]23CCCN2C[C@H](F)C3)nc(N2CC3(CCc4sc(N)c(C#N)c43)C2)n1` (single isomer, unassigned) [Compound 122B, 2-amino-1′-[4-[[(1*)-1-(2-amino-3-pyridyl)ethyl]-(2-hydroxyethyl)amino]-6-[[(2R,8S)-2-fluoro-1,2,3,5,6,7-hexahydropyrrolizin-8-yl]methoxy]-1,3,5-triazin-2-yl]spiro[5,6-dihydrocyclopenta[b]thiophene-4,3′-azetidine]-3-carbonitrile], the 50% inhibitory concentration (IC50) in assay [1] is less than 10 nM; in assay [2] it was less than 10 nM; in assay [3] (Table 4, 3 hours), 10 to 100 nM; in assay [4] (Table 4, 3 hours), 10 to 100 nM.
`C[C@@]1(O)CCCN(c2nc(OCC3(CN4CCOCC4)CC3)nc(N3CC4(C3)c3c(sc(N)c3C#N)C[C@H]4F)n2)C1` [Compound 70, (5R)-2-amino-5-fluoro-1′-[4-[(3R)-3-hydroxy-3-methyl-1-piperidyl]-6-[[1-(morpholinomethyl)cyclopropyl]methoxy]-1,3,5-triazin-2-yl]spiro[5,6-dihydrocyclopenta[b]thiophene-4,3′-azetidine]-3-carbonitrile]: the half-inhibitory concentration (IC50) in assay [1] is less than 10 nM; in assay [2] it was less than 10 nM; in assay [3] (GP2d, 3 h, Table 4) it was 100 to 1000 nM; in assay [4] (setting [5]), 100 to 1000 nM.
Take `N#CCC1(O)CCCN(c2nc(OCC3(CN4CCOCC4)CC3)nc(N3CC4(CCc5sc(N)c(C#N)c54)C3)n2)C1` (centres unmarked) [Compound 101, 2-amino-1′-[4-[3-(cyanomethyl)-3-hydroxy-1-piperidyl]-6-[[1-(morpholinomethyl)cyclopropyl]methoxy]-1,3,5-triazin-2-yl]spiro[5,6-dihydrocyclopenta[b]thiophene-4,3′-azetidine]-3-carbonitrile]: the IC50 in assay [1] is less than 10 nM; in assay [2], 10 to 100 nM; in assay [3] (GP2d, 3 h, Table 4), 100 to 1000 nM; in assay [4] (setting [5]), 1000 to 20000 nM.
For `C[C@]1(CO)C[C@@H](O)CN1c1nc(OC[C@@]23CCCN2C[C@H](F)C3)nc(N2CC3(CCc4sc(N)c(C#N)c43)C2)n1` [Compound 58, 2-amino-1′-[4-[[(2R,8S)-2-fluoro-1,2,3,5,6,7-hexahydropyrrolizin-8-yl]methoxy]-6-[(2R,4R)-4-hydroxy-2-(hydroxymethyl)-2-methyl-pyrrolidin-1-yl]-1,3,5-triazin-2-yl]spiro[5,6-dihydrocyclopenta[b]thiophene-4,3′-azetidine]-3-carbonitrile], in that order: 10 to 100 nM, 10 to 100 nM, 1000 to 20000 nM and 1000 to 20000 nM.
The corresponding values for `CC(c1cccnc1N)N(C)c1nc(OC[C@@]23CCCN2C[C@H](F)C3)nc(N2CC3(C2)SCc2sc(N)c(C#N)c23)n1` (single isomer, unassigned) [Compound 120A, 2-amino-1′-[4-[[(1*)-1-(2-amino-3-pyridyl)ethyl]-methyl-amino]-6-[[(2R,8S)-2-fluoro-1,2,3,5,6,7-hexahydropyrrolizin-8-yl]methoxy]-1,3,5-triazin-2-yl]spiro[6H-thieno[3,4-b]thiophene-4,3′-azetidine]-3-carbonitrile] are less than 10 nM, less than 10 nM, less than 10 nM and less than 10 nM.
`N#Cc1c(N)sc2c1C1(CC2)CN(c2nc(OCC3(CN4CCOCC4)CC3)nc(N3CCCCC(C#N)C3)n2)C1` (centres unmarked) [Compound 86, 2-amino-1′-[4-(3-cyanoazepan-1-yl)-6-[[1-(morpholinomethyl)cyclopropyl]methoxy]-1,3,5-triazin-2-yl]spiro[5,6-dihydrocyclopenta[b]thiophene-4,3′-azetidine]-3-carbonitrile]: the IC50 is 10 to 100 nM in assay [1]; 10 to 100 nM in assay [2]; 100 to 1000 nM in assay [3] (GP2d, 3 h, Table 4); 1000 to 20000 nM in assay [4] (setting [5]).
With `CC(c1nonc1N)N(C)c1nc(OC[C@@]23CCCN2C[C@H](F)C3)nc(N2CC3(CCc4sc(N)c(C#N)c43)C2)n1` (stereo partly drawn) [Compound 156, 2′-amino-1-(4-((1-(4-amino-1,2,5-oxadiazol-3-yl)ethyl)(methyl)amino)-6-(((2R,7aS)-2-fluorotetrahydro-1H-pyrrolizin-7a(5H)-yl)methoxy)-1,3,5-triazin-2-yl)-5′,6′-dihydrospiro[azetidine-3,4′-cyclopenta[b]thiophene]-3′-carbonitrile], the IC50 in assay [1] was less than 10 nM; in assay [2] it was 100 to 1000 nM; in assay [3] (GP2d, 3 h, Table 4) it was 1000 to 20000 nM; in assay [4] (setting [5]), 10 to 100 nM.
For `N#Cc1c(N)sc2c1C1(CC2)CN(c2nc(OC[C@@]34CCCN3C[C@H](F)C4)nc(N3CCCCC(C#N)C3)n2)C1` (stereo partly drawn) [Compound 74, 2-amino-1′-[4-(3-cyanoazepan-1-yl)-6-[[(2R,8S)-2-fluoro-1,2,3,5,6,7-hexahydropyrrolizin-8-yl]methoxy]-1,3,5-triazin-2-yl]spiro[5,6-dihydrocyclopenta[b]thiophene-4,3′-azetidine]-3-carbonitrile], in that order: less than 10 nM, 10 to 100 nM, 100 to 1000 nM and 100 to 1000 nM.
